Laboratory results reported in patent publication US11377416B2, “Crystalline forms of hydroxynorketamine” (SMALL PHARMA LTD, priority 2017, dated 2022).

Columns and labels:
[1] = TG/DTA thermal analysis of crystal forms; assay type: physicochemical; conditions: heated 10° C./min from 20° C. to 300° C. under nitrogen
Method: Approximately 5 mg of material was weighed into an open aluminium pan and loaded into a simultaneous thermogravimetric/differential thermal analyser (TG/DTA) and held at room temperature. The sample was then heated at a rate of 10° C./min from 20° C. to 300° C. during which time the change in sample weight was recorded along with any differential thermal events (DTA). Nitrogen was used as the purge gas, at a flow rate of 300 cm^3/min.

[2] = comparison value for known crystal forms, conditions not given; cited from earlier work
[3] = pKa analysis, potentiometric (pH-metric) titration; assay type: physicochemical; conditions: pH-metric triple titration, methanol-water co-solvent, pH 2.0-12.0, Yasuda-Shedlovsky extrapolation
Method: The sample pKa was determined using the potentiometric (pH-metric) technique following attempts to determine pKa via UV spectroscopic techniques.
UV-metric: The sample was initially titrated in a fast-UV triple titration between pH 2.0-12.0 at concentrations of 31-19 μM, under aqueous conditions. No evidence of any sample ionisation within the investigated pH range was inferred from the spectroscopic data obtained, meaning that any ionisable groups were remote from chromophores. Therefore, the sample was analysed using the pH-metric method.
pH-metric: The sample was subsequently titrated using the potentiometric technique to determine the non-UV active pKas. A triple titration was carried out under methanol-water co-solvent conditions from pH 2.0-12.0 at concentrations of 0.9-0.6 mM (the methanol mixing ratio varied from 53.0 to 33.3% w/w). No precipitation of the sample from solution was observed so the pKa was determined from the potentiometric data collected, by Yasuda-Shedlovsky extrapolation of the individual results obtained. pKa of 2R,6R-hydroxynorketamine was calculated as 6.51+/−0.02.

| SMILES | temperature above which the material degrades (TG/DTA) [1] | further results |
| --- | --- | --- |
| NC1(c2ccccc2Cl)CCCC(O)C1=O.O=C(O)CC(O)C(=O)O [2R,6R-Hydroxynorketamine L-Malate, 2R,6R-hydroxynorketamine L-malate] | above 150 °C |  |
| NC1(c2ccccc2Cl)CCCC(O)C1=O.O=C(O)C=CC(=O)O.O=C(O)C=CC(=O)O (stereo not drawn) [2R,6R-Hydroxynorketamine Difumarate, 2R,6R-hydroxynorketamine difumarate] | above 159 °C |  |
| Cl.N[C@@]1(c2ccccc2Cl)CCC[C@@H](O)C1=O [2R,6R-hydroxynorketamine hydrochloride] |  | aqueous solubility of known crystal forms [2]: 25 mg/mL |
| N[C@@]1(c2ccccc2Cl)CCC[C@@H](O)C1=O.O=C(O)C(O)C(O)C(=O)O [2R,6R-Hydroxynorketamine L-Tartrate, 2R,6R-hydroxynorketamine L-tartrate] | above 157 °C |  |
| N[C@@]1(c2ccccc2Cl)CCC[C@@H](O)C1=O [2R,6R-hydroxynorketamine, 2R,6R-2-(2-Chlorophenyl)-2-(amino)-6-hydroxycyclohexanone] |  | pKa [3]: 6.51+/−0.02 |
| NC1(c2ccccc2Cl)CCCC(O)C1=O.O=C(O)CC(O)(CC(=O)O)C(=O)O (stereo not drawn) [2R,6R-Hydroxynorketamine Citrate] | above 157 °C |  |
| N[C@@]1(c2ccccc2Cl)CCC[C@@H](O)C1=O.O=C1CC[C@@H](C(=O)O)N1 [2R,6R-hydroxynorketamine L-pyroglutamate] | above 159 °C |  |
